Results published in ChEMBL document CHEMBL5029163, “Enhancing the Pharmacokinetic Profile of Interleukin 2 through Site-Specific Conjugation to a Selective Small-Molecule Transthyretin Ligand” (J Med Chem, 2021).
The source made the active and inactive calls. No cut-off for these calls is given here.

How the values were obtained:
Transthyretin [1] = target: T1, Transthyretin (Homo sapiens, UniProt P02766); assay: Binding affinity to human TTR assessed as binding constant in PBS buffer at pH 7.4 measured after 20 mins fluorescence polarization assay
[2] = target: Interleukin-2 (Homo sapiens) (UniProt P60568); assay: Induction of stability of human recombinant interleukin 2 assessed as mean residence time in Sprague-Dawley rat at 0.8 mg/kg, iv measured up to 24 hrs by ELISA (Rvb= 1.04+/-0.07 hrs); type: organism-based; conditions: time hrs <=24
Chain of Interleukin-2 (Homo sapiens) (P60568 whole entry): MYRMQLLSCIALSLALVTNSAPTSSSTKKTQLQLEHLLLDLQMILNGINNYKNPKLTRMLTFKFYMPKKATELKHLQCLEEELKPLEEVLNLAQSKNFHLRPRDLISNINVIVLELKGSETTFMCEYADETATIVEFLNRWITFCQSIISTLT

[3] = target: Interleukin-2 (Homo sapiens) (UniProt P60568); assay: Induction of stability of human recombinant interleukin 2 assessed as effect on mouse CTLL-2 cell proliferation in presence of TTR measured after 48 hrs by WST-1 assay
[4] = target: Interleukin-2 (Homo sapiens) (UniProt P60568); assay: Induction of stability of human recombinant interleukin 2 assessed as binding affinity to human TTR in human serum by measuring target occupancy at 10 uM measured every 15 mins for 6 hrs by fluorescent probe exclusion selectivity assay; type: cell-free
Transthyretin [5] = target: T1, Transthyretin; assay: Binding affinity to human TTR in human serum assessed as target occupancy at 10 uM measured every 15 mins for 6 hrs by fluorescent probe exclusion selectivity assay; type: cell-free
[6] = target: Interleukin-2 (Homo sapiens) (UniProt P60568); assay: Induction of stability of human recombinant interleukin 2 assessed as half life in Sprague-Dawley rat plasma at 0.8 mg/kg, iv measured up to 24 hrs by ELISA (Rvb= 1.26+/-0.18 hrs); type: organism-based; conditions: time hrs <=24

Kd (Transthyretin [1]): 516 nM | MRT [2]: 8.76 h | Activity [3]: inactive | Occ [4]: 52.6% | Occ (Transthyretin [5]): 51.8% | T1/2 [6]: 5.22 h
SMILES: Cc1n[nH]c(C)c1CCCOc1cc(OCCCc2cn(CCOCCOCCOCCOCCNC(=O)C3CCC(CN4C(=O)C=CC4=O)CC3)nn2)cc(C(=O)O)c1 (stereo unspecified)
